System: 186277-243-T-J2-PDC spheroids with HUVEC/MSC, viability
Experiment: Anticancer human tumor 186277-243-T-J2-PDC patient-derived colon adenocarcinoma cell line growth inhibition [CLK]
Settings: for IC50: curve of first compound; for viability, T/C: stronger effect = lower value
How it was run: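 Patient-derived tumor cells grown as complex spheroids with HUVEC endothelial cells and mesenchymal stem cells, treated with drug combinations. Concentrations descend in half-log steps from near clinical Cmax, or from 10 microM if Cmax unknown.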

[1] = second compound 0.0316 µM, first compound 0.0316 µM
[2] = second compound 0.0316 µM, first compound 0.1 µM
[3] = second compound 0.1 µM, first compound 0.0316 µM
[4] = second compound 0.1 µM, first compound 0.1 µM
[5] = second compound 0.316 µM, first compound 0.0316 µM
[6] = second compound 0.316 µM, first compound 0.1 µM
[7] = second compound 1 µM, first compound 0.0316 µM
[8] = second compound 1 µM, first compound 0.1 µM
[9] = second compound 3.16 µM, first compound 0.0316 µM
[10] = second compound 3.16 µM, first compound 0.1 µM
[11] = second compound 10 µM, first compound 0.0316 µM
[12] = second compound 10 µM, first compound 0.1 µM
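Also: compound exposure lasted seven days before readout.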
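For viability, T/C in this document: 100% = DMSO vehicle control wells.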

`CC(C)CC(NC(=O)C(Cc1ccccc1)NC(=O)c1cnccn1)B(O)O` (stereo unspecified) + CN1CCN(c2cc(C(=O)Nc3cc4cc(-c5cnn(C)c5)ccc4cn3)ccn2)CC1 was tested, and the IC50 (second compound 0.0316 µM) was 4.52 nM, the IC50 (second compound 0.1 µM) was 2.27 nM and the IC50 (second compound 0.316 µM) was < 0.949 nM. For the same molecule, the IC50 (second compound 1 µM) was < 0.949 nM, the IC50 (second compound 3.16 µM) was < 0.949 nM and the IC50 (second compound 10 µM) was < 0.949 nM. It also gave a viability, T/C (second compound 0.0316 µM, first compound 0.000949 µM) of 93%, a viability, T/C (second compound 0.0316 µM, first compound 0.003 µM) of 77.2% and a viability, T/C (second compound 0.0316 µM, first compound 0.00949 µM) of 0.25%. It also gave a viability, T/C (second compound 0.0316 µM, first compound 0.03 µM) of 0.9%, a viability, T/C (second compound 0.0316 µM, first compound 0.0949 µM) of 0.78% and a viability, T/C (second compound 0.0316 µM, first compound 0.3 µM) of 1.15%. The viability, T/C (second compound 0.1 µM, first compound 0.000949 µM) was 88.1%, the viability, T/C (second compound 0.1 µM, first compound 0.003 µM) was 37.7% and the viability, T/C (second compound 0.1 µM, first compound 0.00949 µM) was 1.84%. The viability, T/C (second compound 0.1 µM, first compound 0.03 µM) was 0.31%, the viability, T/C (second compound 0.1 µM, first compound 0.0949 µM) was 1.92% and the viability, T/C (second compound 0.1 µM, first compound 0.3 µM) was 0.17%. The viability, T/C (second compound 0.316 µM, first compound 0.000949 µM) was 26.1%, the viability, T/C (second compound 0.316 µM, first compound 0.003 µM) was 1.14% and the viability, T/C (second compound 0.316 µM, first compound 0.00949 µM) was 1.35%. The viability, T/C (second compound 0.316 µM, first compound 0.03 µM) was 1.4%, the viability, T/C (second compound 0.316 µM, first compound 0.0949 µM) was 1.62% and the viability, T/C (second compound 0.316 µM, first compound 0.3 µM) was 0.34%. For the same molecule, the viability, T/C (second compound 1 µM, first compound 0.000949 µM) was 0.5%, the viability, T/C (second compound 1 µM, first compound 0.003 µM) was 0.4% and the viability, T/C (second compound 1 µM, first compound 0.00949 µM) was 1.57%. For the same molecule, the viability, T/C (second compound 1 µM, first compound 0.03 µM) was 0.8%, the viability, T/C (second compound 1 µM, first compound 0.0949 µM) was 1.78% and the viability, T/C (second compound 1 µM, first compound 0.3 µM) was 0.17%. For the same molecule, the viability, T/C (second compound 3.16 µM, first compound 0.000949 µM) was 2.83%, the viability, T/C (second compound 3.16 µM, first compound 0.003 µM) was 0.72% and the viability, T/C (second compound 3.16 µM, first compound 0.00949 µM) was 0.33%. The viability, T/C (second compound 3.16 µM, first compound 0.03 µM) was 1.62%, the viability, T/C (second compound 3.16 µM, first compound 0.0949 µM) was 1.24% and the viability, T/C (second compound 3.16 µM, first compound 0.3 µM) was 0.17%. The viability, T/C (second compound 10 µM, first compound 0.000949 µM) was 1.17%, the viability, T/C (second compound 10 µM, first compound 0.003 µM) was 0.46% and the viability, T/C (second compound 10 µM, first compound 0.00949 µM) was 0.27%. For the same molecule, the viability, T/C (second compound 10 µM, first compound 0.03 µM) was 1.87%, the viability, T/C (second compound 10 µM, first compound 0.0949 µM) was 1.18% and the viability, T/C (second compound 10 µM, first compound 0.3 µM) was 0.16%.

`Cn1ncnc1[C@H]1c2n[nH]c(=O)c3cc(F)cc(c23)N[C@@H]1c1ccc(F)cc1` + CN1CCN(c2cc(C(=O)Nc3cc4cc(-c5cnn(C)c5)ccc4cn3)ccn2)CC1 was tested, and the IC50 (second compound 0.0316 µM) was > 100 nM, the IC50 (second compound 0.1 µM) was > 100 nM and the IC50 (second compound 0.316 µM) was < 0.316 nM. For the same molecule, the IC50 (second compound 1 µM) was < 0.316 nM, the IC50 (second compound 3.16 µM) was < 0.316 nM and the IC50 (second compound 10 µM) was < 0.316 nM. For the same molecule, the viability, T/C (second compound 0.0316 µM, first compound 0.000316 µM) was 86.9%, the viability, T/C (second compound 0.0316 µM, first compound 0.001 µM) was 104% and the viability, T/C (second compound 0.0316 µM, first compound 0.00316 µM) was 108%. The viability, T/C (second compound 0.0316 µM, first compound 0.01 µM) was 114%, the viability, T/C [1] was 95.1% and the viability, T/C [2] was 113%. The viability, T/C (second compound 0.1 µM, first compound 0.000316 µM) was 73.9%, the viability, T/C (second compound 0.1 µM, first compound 0.001 µM) was 75.6% and the viability, T/C (second compound 0.1 µM, first compound 0.00316 µM) was 69%. For the same molecule, the viability, T/C (second compound 0.1 µM, first compound 0.01 µM) was 82.6%, the viability, T/C [3] was 69.8% and the viability, T/C [4] was 58.6%. The viability, T/C (second compound 0.316 µM, first compound 0.000316 µM) was 20.9%, the viability, T/C (second compound 0.316 µM, first compound 0.001 µM) was 19.2% and the viability, T/C (second compound 0.316 µM, first compound 0.00316 µM) was 22.7%. It also gave a viability, T/C (second compound 0.316 µM, first compound 0.01 µM) of 20%, a viability, T/C [5] of 21.9% and a viability, T/C [6] of 19.8%. The viability, T/C (second compound 1 µM, first compound 0.000316 µM) was 2.81%, the viability, T/C (second compound 1 µM, first compound 0.001 µM) was 0.25% and the viability, T/C (second compound 1 µM, first compound 0.00316 µM) was 0.86%. For the same molecule, the viability, T/C (second compound 1 µM, first compound 0.01 µM) was 2.93%, the viability, T/C [7] was 1.61% and the viability, T/C [8] was 0.53%. For the same molecule, the viability, T/C (second compound 3.16 µM, first compound 0.000316 µM) was 2.49%, the viability, T/C (second compound 3.16 µM, first compound 0.001 µM) was 0.69% and the viability, T/C (second compound 3.16 µM, first compound 0.00316 µM) was 1.36%. For the same molecule, the viability, T/C (second compound 3.16 µM, first compound 0.01 µM) was 1.46%, the viability, T/C [9] was 2.26% and the viability, T/C [10] was 0.62%. It also gave a viability, T/C (second compound 10 µM, first compound 0.000316 µM) of 1.78%, a viability, T/C (second compound 10 µM, first compound 0.001 µM) of 0.48% and a viability, T/C (second compound 10 µM, first compound 0.00316 µM) of 0.42%. It also gave a viability, T/C (second compound 10 µM, first compound 0.01 µM) of 0.58%, a viability, T/C [11] of 0.53% and a viability, T/C [12] of 0.46%.

With `O=C(c1cc(Cc2n[nH]c(=O)c3ccccc23)ccc1F)N1CCN(C(=O)C2CC2)CC1` + CN1CCN(c2cc(C(=O)Nc3cc4cc(-c5cnn(C)c5)ccc4cn3)ccn2)CC1 the IC50 (second compound 0.0316 µM) was > 10000 nM, the IC50 (second compound 0.1 µM) was > 10000 nM and the IC50 (second compound 0.316 µM) was < 31.6 nM. For the same molecule, the IC50 (second compound 1 µM) was < 31.6 nM, the IC50 (second compound 3.16 µM) was < 31.6 nM and the IC50 (second compound 10 µM) was < 31.6 nM. For the same molecule, the viability, T/C [1] was 95.8%, the viability, T/C [2] was 97.4% and the viability, T/C (second compound 0.0316 µM, first compound 0.316 µM) was 97.2%. The viability, T/C (second compound 0.0316 µM, first compound 1 µM) was 103%, the viability, T/C (second compound 0.0316 µM, first compound 3.16 µM) was 102% and the viability, T/C (second compound 0.0316 µM, first compound 10 µM) was 93.6%. It also gave a viability, T/C [3] of 82.5%, a viability, T/C [4] of 82.8% and a viability, T/C (second compound 0.1 µM, first compound 0.316 µM) of 82.7%. It also gave a viability, T/C (second compound 0.1 µM, first compound 1 µM) of 73.9%, a viability, T/C (second compound 0.1 µM, first compound 3.16 µM) of 73.2% and a viability, T/C (second compound 0.1 µM, first compound 10 µM) of 69%. The viability, T/C [5] was 24.6%, the viability, T/C [6] was 25.8% and the viability, T/C (second compound 0.316 µM, first compound 0.316 µM) was 23.1%. For the same molecule, the viability, T/C (second compound 0.316 µM, first compound 1 µM) was 24.8%, the viability, T/C (second compound 0.316 µM, first compound 3.16 µM) was 24.2% and the viability, T/C (second compound 0.316 µM, first compound 10 µM) was 21.7%. The viability, T/C [7] was 0.33%, the viability, T/C [8] was 0.74% and the viability, T/C (second compound 1 µM, first compound 0.316 µM) was 2.04%. The viability, T/C (second compound 1 µM, first compound 1 µM) was 0.29%, the viability, T/C (second compound 1 µM, first compound 3.16 µM) was 1.71% and the viability, T/C (second compound 1 µM, first compound 10 µM) was 0.32%. It also gave a viability, T/C [9] of 2.76%, a viability, T/C [10] of 1.64% and a viability, T/C (second compound 3.16 µM, first compound 0.316 µM) of 1.3%. The viability, T/C (second compound 3.16 µM, first compound 1 µM) was 1.29%, the viability, T/C (second compound 3.16 µM, first compound 3.16 µM) was 1.16% and the viability, T/C (second compound 3.16 µM, first compound 10 µM) was 1.05%. The viability, T/C [11] was 1.59%, the viability, T/C [12] was 0.89% and the viability, T/C (second compound 10 µM, first compound 0.316 µM) was 0.83%. It also gave a viability, T/C (second compound 10 µM, first compound 1 µM) of 0.77%, a viability, T/C (second compound 10 µM, first compound 3.16 µM) of 1.1% and a viability, T/C (second compound 10 µM, first compound 10 µM) of 0.59%.

Source: PubChem BioAssay AID2060625 (Molecular Pharmacology Branch, DTP, NCI, 2025)
